{
  "source": "patent US20040053872A1",
  "about": "“New sequences” (priority 2000, published 2004)",
  "type_in_all_cases": "biochemical",
  "key": {"[1]": {"test_system": "panel of recombinant HIV 1 subtype B RTs", "assay": "RT assay: inhibition of RNA dependent DNA polymerisation, whole RT panel", "conditions": "for pIC50: all RTs of the panel, summary of table 1, read-out: IC50, range over all RTs studied (reverse transcription)", "procedure": "(§1) The flourimetric RT assay (Cavidi® Lenti RT activity kit), available from Cavidi Tech, Uppsala, Sweden, was used for the determination of RT activity. In short, poly(rA) covalently bound to the wells of a 96 well microtiter plate serves as template for the incorporation of 5-bromodeoxyuridine 5′-triphosphate (BrdUTP) during the reverse transcription step at 33° C. The amount of bromodeoxyuridine monophosphate (BrdUMP) incorporated into DNA is detected with an alkaline phosphatase (Ap) conjugated, anti-BrdU monoclonal antibody. An Ap substrate, 4-methylumbelliferyl phosphate, is finally used for fluorimetric product detection.\n(i) Protocol for determination of inhibition of RNA dependent DNA polymerisation: The inhibition studies were performed in a modified Lenti RT assay. […]\nThe final nucleotide substrate (BrdUTP) concentration was 0.35 μM, and the primer (odT22) amount was 0.03 ng per well."}, "[2]": {"biological_target": "recombinant HIV-1 RT, ref RT (HIV type B, clone BH 10) (Human immunodeficiency virus type 1 group M subtype B, UniProt P03366)", "parameters": "performed by recombinant HIV-1 RT:s with defined", "conditions": "second strand DNA synthesis, preincubation 30 minutes at 33° C., 3 hours, read-out: IC50 of indicated inhibitor in DNAp assay", "text": "(§2) The flourimetric DNA-polymerase assay used is available from Cavidi Tech AB, Uppsala, Sweden. It is based on a short DNA primer analogous to a part of the tRNA^Lys3 sequence. The template is a single stranded deoxynucleotide template with part of the sequence complementary to the primer. The enzyme reaction is dependent on all four deoxynucleotide bases. The thymidine triphosphate is, however, replaced by BrdUTP. The amount of BrdUMP incorporated into DNA during the polymerase reaction is detected with an alkaline phosphatase (Ap) conjugated anti-BrdU monoclonal antibody. An Ap substrate, 4-methylumbelliferyl phosphate, is finally used for fluorimetric product detection.\n(ii) Protocol for determination of inhibition of second strand synthesis on a variable DNA template: The inhibition studies were performed in a modified DNA polymerase assay. The inhibitors were serially diluted in five steps, enzyme dilution was added and the enzyme/inhibitor mixtures were incubated for 30 minutes at 33° C. The enzyme reaction was initiated by addition of 75 μl aliquots of the enzyme/inhibitor mixture to each well of a microtiter plate containing 75 μl DNA polymerase reaction mixture per well. The polymerase reaction was allowed to proceed for 3 hours at 33° C. whereupon the reaction was terminated by a wash of the plate. […]"}, "[3]": {"test_system": "panel of recombinant HIV 1 subtype B RTs", "assay": "DNAp assay: inhibition of second strand DNA synthesis, whole RT panel", "conditions": "all RTs of the panel; summary of table 2; read-out: IC50, range over all RTs studied (second strand DNA synthesis)", "text": "as §2\n(ii) Protocol for determination of inhibition of second strand synthesis on a variable DNA template: The inhibition studies were performed in a modified DNA polymerase assay. […] The enzyme reaction was initiated by addition of 75 μl aliquots of the enzyme/inhibitor mixture to each well of a microtiter plate containing 75 μl DNA polymerase reaction mixture per well.\nThe results, which are summarised in table 2, were rather similar to those found for inhibition of reverse transcription (table 1)."}, "[4]": {"biological_target": "T1, recombinant HIV-1 RT L100I/K103N (Human immunodeficiency virus type 1 group M subtype B, UniProt P03366, K702N/L699I)", "T1 construct": "performed by recombinant HIV-1 RT:s with defined", "assay": "RT assay: inhibition of RNA dependent DNA polymerisation (modified Lenti RT assay)", "conditions": "enzyme/inhibitor preincubated 30 minutes at 33° C., BrdUTP 0.35 μM, odT22 0.03 ng per well, 3 hours, read-out: IC50 of indicated inhibitor in RT assay", "procedure": "as §1\n(i) Protocol for determination of inhibition of RNA dependent DNA polymerisation: The inhibition studies were performed in a modified Lenti RT assay. The inhibitors were serially diluted in five steps, whereupon enzyme dilution was added and the enzyme/inhibitor mixtures were incubated for 30 minutes at 33° C. The enzyme reaction was initiated by addition of 100 μl aliquots of the enzyme/inhibitor mixture to each well of a microtiter plate containing 100 μl RT reaction mixture per well. The polymerase reaction was allowed to proceed for 3 hours at 33° C., whereupon the reaction was terminated by a wash of the plate. […] The amount of RT used was standardised to an activity corresponding to 90-130 pg (7-10×10^−16 mol) reference HIV-1 RT per well […]"}, "[5]": {"biological_target": "T2, recombinant HIV-1 RT E478Q (Human immunodeficiency virus type 1 group M subtype B, UniProt P03366, E1077Q)", "T2 construct": "performed by recombinant HIV-1 RT:s with defined", "conditions": "second strand DNA synthesis, preincubation 30 minutes at 33° C., 3 hours, read-out: IC50 of indicated inhibitor in DNAp assay", "text": "as §2\n(§3) (ii) Protocol for determination of inhibition of second strand synthesis on a variable DNA template: The inhibition studies were performed in a modified DNA polymerase assay. The inhibitors were serially diluted in five steps, enzyme dilution was added and the enzyme/inhibitor mixtures were incubated for 30 minutes at 33° C. The enzyme reaction was initiated by addition of 75 μl aliquots of the enzyme/inhibitor mixture to each well of a microtiter plate containing 75 μl DNA polymerase reaction mixture per well. The polymerase reaction was allowed to proceed for 3 hours at 33° C. whereupon the reaction was terminated by a wash of the plate. […] The amount of RT used was standardised to an activity corresponding to 40-60 pg (3.3-5.0×10^−16 mol) reference HIV-1 RT per well.\n(§4) The capacity of the indicated substances to inhibit each enzyme in a panel of recombinant HIV 1 subtype B RTs was studied according to “Protocol for determination of inhibition of second strand synthesis on variable DNA template” (protocol (ii) above)."}, "[6]": {"biological_target": "T3, recombinant HIV-1 RT L100I (Human immunodeficiency virus type 1 group M subtype B, UniProt P03366, L699I)", "T3 construct": "performed by recombinant HIV-1 RT:s with defined", "conditions": "second strand DNA synthesis, preincubation 30 minutes at 33° C., 3 hours, read-out: IC50 of indicated inhibitor in DNAp assay", "text": "as §2, §3, §4"}, "[7]": {"biological_target": "T4, recombinant HIV-1 RT K103N/E478Q (Human immunodeficiency virus type 1 group M subtype B, UniProt P03366, E1077Q/K702N)", "T4 construct": "performed by recombinant HIV-1 RT:s with defined", "conditions": "second strand DNA synthesis, preincubation 30 minutes at 33° C., 3 hours, read-out: IC50 of indicated inhibitor in DNAp assay", "text": "as §2, §3, §4"}},
  "note": "pIC50: −log10 of the molar value. Strand notation (5' to 3'): a small letter for the sugar, then the base; units joined by * are phosphorothioate-linked, units joined directly phosphodiester-linked; [ ] holds rarer units or linkages, { } end groups; capitals alone tell only the bases. r = 2'-OH (RNA)",
  "data": [
    {"substance": "substance 199: 35-mer RNA molecule having the sequence set out in SEQ ID NO:5; similar to SEQ ID NO:4 with some naturally occurring nucleotide derivatives (GCUCAGNCGGNAGAGCANCAGACUUUUAANCUGAN; RNA, backbone, methylation of C and the base at N not given here; naturally occurring modified nucleosides at n positions)", "values": [
      {"measurement": "pIC50", "setting": "[1]", "value": "7.92 to 8.22"},
      {"measurement": "Results with inhibitor added directly to the RT reaction mixture compared with the standard procedure", "setting": "[1]; alternative procedure without pre-incubation", "value": "not significantly different"},
      {"measurement": "pIC50", "setting": "[2]", "value": 7.40},
      {"measurement": "pIC50", "setting": "[3]", "value": "7.29 to 7.44"},
      {"measurement": "pIC50", "setting": "[4]", "value": 7.92},
      {"measurement": "pIC50", "setting": "[5]", "value": 7.47},
      {"measurement": "pIC50", "setting": "[6]", "value": 7.44},
      {"measurement": "pIC50", "setting": "[7]", "value": 7.29}
    ]},
    {"substance": "substance 198: 15-mer RNA phosphorothioate with the base sequence of tRNALys3 anticodon stem and loop, SEQ ID NO:7 (rC*rA*rG*rA*rC*rU*rU*rU*rU*rA*rA*rU*rC*rU*rG) [reference compound]", "values": [
      {"measurement": "pIC50", "setting": "[1]", "value": "5.96 to 6.47"},
      {"measurement": "pIC50", "setting": "[2]", "value": 6.26},
      {"measurement": "pIC50", "setting": "[3]", "value": "6.00 to 6.26"},
      {"measurement": "pIC50", "setting": "[4]", "value": 6.05},
      {"measurement": "pIC50", "setting": "[5]", "value": 6.00},
      {"measurement": "pIC50", "setting": "[6]", "value": 6.66},
      {"measurement": "pIC50", "setting": "[7]", "value": 6.00}
    ]}
  ]
}
